32 compounds from patent US5789434A, “Derivatives of substituted 4-biarylbutyric acid as matrix metalloprotease inhibitors” (priority 1995, dated 1998) can be followed below.

Test [1] deals with T1, MMP-3 (Homo sapiens, UniProt P08254).
T1 construct: Truncated Prostromelysin-257 was expressed in a soluble form in E.coli; made in house; host or cells: E. coli
Put plainly: Primary Thiopeptilide MMP-3 Inhibition Assay. The class given is biochemical. The conditions noted are these: for IC50: pH 6.5, 13 nM stromelysin, x (n) = average of n determinations, read-out: MMP-3 Thiopep. IC50; for inhibition at 5 µM: read-out: MMP-3 Thiopep. % inhibition.
Description: Enzyme: recombinant stromelysin expressed in E.coli and purified as described above. […] The protocols for the assay of compounds as stromelysin inhibitors was the same as that used for MMP-9 except that the assay buffer was 50 mM MES, pH 6.5 containing 150 mM NaCl, 10 mM CaCl2, 0.005% Brij, and 1% DMSO.

Test [2] deals with T2, MMP-9 (Homo sapiens, UniProt P14780).
T2 construct: from tissue; host or cells: human polymorphonuclear leukocytes (PMN) from whole blood (New York Blood Center), PMA-stimulated supernatant
T2 sequence (P14780 107-707 limits assumed): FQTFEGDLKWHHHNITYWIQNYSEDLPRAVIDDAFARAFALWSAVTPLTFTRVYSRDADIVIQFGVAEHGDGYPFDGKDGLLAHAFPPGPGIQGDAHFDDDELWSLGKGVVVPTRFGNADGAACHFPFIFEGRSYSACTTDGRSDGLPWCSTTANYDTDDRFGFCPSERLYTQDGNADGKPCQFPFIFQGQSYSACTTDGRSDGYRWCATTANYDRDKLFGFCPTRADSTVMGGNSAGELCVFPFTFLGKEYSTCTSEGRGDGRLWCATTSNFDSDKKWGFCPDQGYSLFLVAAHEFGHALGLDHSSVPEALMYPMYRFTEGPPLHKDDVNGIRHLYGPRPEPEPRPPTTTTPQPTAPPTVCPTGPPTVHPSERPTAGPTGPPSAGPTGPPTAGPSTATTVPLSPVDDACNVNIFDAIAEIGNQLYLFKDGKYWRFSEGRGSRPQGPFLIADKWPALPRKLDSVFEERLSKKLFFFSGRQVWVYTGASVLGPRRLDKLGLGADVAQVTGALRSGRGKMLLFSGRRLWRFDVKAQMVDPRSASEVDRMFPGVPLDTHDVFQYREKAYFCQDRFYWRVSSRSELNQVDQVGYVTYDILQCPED
The test can be described thus: Thiopeptilide MMP-9 Inhibition Assay. The format is biochemical. The conditions noted are these: for IC50: pH 6.5, x (n) = average of n determinations, read-out: MMP-9: Thiopep. IC50; for inhibition at 5 µM: read-out: MMP-9: Thiopep. % inhibition.

T1 sequence (P08254 100-274 limits assumed): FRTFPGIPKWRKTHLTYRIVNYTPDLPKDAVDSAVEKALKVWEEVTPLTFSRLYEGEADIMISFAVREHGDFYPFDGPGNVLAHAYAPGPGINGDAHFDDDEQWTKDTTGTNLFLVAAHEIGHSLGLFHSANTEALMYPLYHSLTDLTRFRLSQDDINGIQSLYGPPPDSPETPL

The IC50 is the point on the concentration scale where inhibition reaches its midpoint. Consider `O=C(CC(CC#Cc1ccccc1)C(=O)O)c1ccc(-c2ccc(Cl)cc2)cc1` (stereo not drawn) [Example 189, [1,1'-Biphenyl]-4-butanoic acid, 4'-chloro-γ-oxo-α-(3-phenyl-2-propynyl)-], for which the IC50 in test [1] is 530 nM; in test [2], 600 nM.

On to `CCc1ccc(SCC(CC(=O)c2ccc(-c3ccc(Cl)cc3)cc2)C(=O)O)cc1` (stereo not drawn) [Example 212, [1,1'-Biphenyl]-4-butanoic acid, 4'-chloro-α-[[(4-ethylphenyl)thio]methyl]-γ-oxo-], for which the concentration for half-maximal inhibition (IC50) in test [1] stood at 650 nM; in test [2] it was 390 nM.

With `COc1ccc(SCC(CC(=O)c2ccc(-c3ccc(Cl)cc3)cc2)C(=O)O)cc1` (stereo not drawn) [Example 206, [1,1'-Biphenyl]-4-butanoic acid, 4'-chloro-α-[[(4-methoxyphenyl)thio]methyl]-γ-oxo-], the IC50 in test [1] was 950 nM; in test [2] it was 417 nM.

Regarding `COc1ccc(-c2ccc(C(=O)CC(CC(C)C)C(=O)O)cc2)cc1` (stereo not drawn) [Example 19, [1,1'-Biphenyl]-4-butanoic acid, 4'-methoxy-α-(2-methylpropyl)-γ-oxo-], the values for the half-inhibitory concentration (IC50) in test [1] and in test [2] were 550 nM and 1200 nM, respectively.

As to `Cc1ccccc1S[C@@H]1CC[C@H](C(=O)c2ccc(-c3ccc(Cl)cc3)cc2)[C@H]1C(=O)O` (relative stereo) [Example 304, Cyclopentanecarboxylic acid, 2-[(4'-chloro[1,1'-biphenyl]-4-yl)carbonyl]-5-[(2-methylphenyl)thio]-, (1α,2β,5α)-], the 50% inhibitory concentration (IC50) in test [1] amounted to 55 nM; in test [2], 42 nM.

For `CC(C)Oc1ccc(-c2ccc(C(=O)CC(CCCc3ccccc3)C(=O)O)cc2)cc1` (stereo not drawn) [Example 91, [1,1'-Biphenyl]-4-butanoic acid, 4'-(1-methylethoxy)-γ-oxo-α-(3-phenylpropyl)-], the values for the half-inhibitory concentration (IC50) in test [1] and in test [2] were 174 nM and 700 nM, respectively.

Regarding `O=C(O)CC(CSc1ccccc1)C(=O)c1ccc(-c2ccc(Cl)cc2)cc1` (stereo not drawn) [Example 257, [1,1'-Biphenyl]-4-butanoic acid, 4'-chloro-γ-oxo-β-[(phenylthio)methyl]-], the IC50 was found to be 800 nM in test [1] and 2100 nM in test [2].

As to `Cc1ccc(SCC(CC(=O)c2ccc(-c3ccc(Cl)cc3)cc2)C(=O)O)cc1` (stereo not drawn) [Example 211, [1,1'-Biphenyl]-4-butanoic acid, 4'-chloro-α-[[(4-methylphenyl)thio]methyl]-γ-oxo-], the figures for the half-maximal inhibitory concentration (IC50) in test [1] and in test [2] were 440 nM and 280 nM, respectively.

Broadly, the inhibition is how much of the control response was suppressed. Regarding `CC1=CC[C@@H](C(=O)c2ccc(-c3ccc(Cl)cc3)cc2)[C@H](C(=O)O)C1` (relative stereo) [Example 329, 3-Cyclohexene-1-carboxylic acid, 6-[(4'-chloro[1,1'-biphenyl]-4-yl)carbonyl]-3-methyl-, trans-], the inhibition at 5 µM in test [1] is 58%. Moreover, in test [2], the IC50 is 8000 nM.

For the compound `O=C(CC(CSC(=O)c1ccccc1)C(=O)O)c1ccc(-c2ccc(Cl)cc2)cc1` (stereo not drawn) [Example 202, [1,1'-Biphenyl]-4-butanoic acid, α-[(benzoylthio)methyl]-4'-chloro-γ-oxo-], the IC50 in test [1] amounted to 250 nM; in test [2], 500 nM.

For the compound `CC(=O)SCC(CC(=O)c1ccc(-c2ccc(Cl)cc2)cc1)C(=O)O` (stereo not drawn) [Example 200, [1,1'-Biphenyl]-4-butanoic acid, α-[(acetylthio)methyl]-4'-chloro-γ-oxo-], the IC50 was 640 nM in test [1] and 2300 nM in test [2].

Turning to `O=C(O)CC(CSc1cccs1)C(=O)c1ccc(-c2ccc(Cl)cc2)cc1` (stereo not drawn) [Example 255, [1,1'-Biphenyl]-4-butanoic acid, 4'-chloro-γ-oxo-β-[(2-thienylthio)methyl]-], the IC50 in test [1] was 950 nM; in test [2], 2000 nM.

`CSc1ccc(-c2ccc(C(=O)CC(CCCc3ccccc3)C(=O)O)cc2)cc1` (stereo not drawn) [Example 51, [1,1'-Biphenyl]-4-butanoic acid, 4'-(methylthio)-γ-oxo-α-(3-phenylpropyl)-]: the values for the 50% inhibitory concentration (IC50) in test [1] and in test [2] were 170 nM and 100 nM, respectively.

`COC(=O)c1ccccc1S[C@H]1CC[C@H](C(=O)c2ccc(-c3ccc(Cl)cc3)cc2)[C@H]1C(=O)O` (relative stereo) [Example 298, trans-5-[4-(4-chlorophenyl)phenylcarbonyl]-cis-2-(2-methoxycarbonylphenylthio)cyclopentanecarboxylic acid]: the 50% inhibitory concentration (IC50) in test [1] worked out at 50 nM; in test [2] it was 850 nM.

With `CC(=O)c1ccc(-c2ccc(Cl)cc2)cc1` [Example 37, Ethanone, 1-(4'-chloro[1,1'-biphenyl]-4-yl)-], the inhibition at 5 µM in test [1] is 9%; in test [2], 0%.

As to `CC(C)CC(CC(=O)c1ccc(Cl)cc1)C(=O)O` (stereo not drawn) [Example 27, Benzenebutanoic acid, 4-chloro-α-(2-methylpropyl)-γ-oxo-, reference compound], the results for the inhibition at 5 µM in test [1] and in test [2] were 11% and 15%, respectively.

On to `CCc1ccccc1SCC(CC(=O)c1ccc(-c2ccc(Cl)cc2)cc1)C(=O)O` (stereo not drawn) [Example 220, [1,1'-Biphenyl]-4-butanoic acid, 4'-chloro-α-[[(2-ethylphenyl)thio]methyl]-γ-oxo-], for which the figures for the 50% inhibitory concentration (IC50) in test [1] and in test [2] were 190 nM and 950 nM, respectively.

As for `O=C(CC(CCCc1ccccc1)C(=O)O)c1ccc(-c2ccc(C(F)(F)F)cc2)cc1` (stereo not drawn) [Example 62, [1,1'-Biphenyl]-4-butanoic acid, γ-oxo-α-(3-phenylpropyl)-4'-(trifluoromethyl)-], the results for the 50% inhibitory concentration (IC50) in test [1] and in test [2] were 400 nM and 4500 nM, respectively.

`CC(C)CC(CC(=O)O)C(=O)c1ccc(-c2ccc(Cl)cc2)cc1` (single isomer, unassigned) [Example 5, 5-methyl-3-[oxo-(4'-chloro-4-biphenyl)methyl]hexanoic acid]: the inhibition at 5 µM in test [1] is 11%; in test [2], 19%.

On to `CC(C)C[C@@H](CC(=O)c1ccc(-c2ccc(Cl)cc2)cc1)C(=O)O` [Example 2, [1,1'-Biphenyl]-4-butanoic acid, 4'-chloro-α-(2-methylpropyl)-γ-oxo-, (S)-], for which the half-inhibitory concentration (IC50) in test [1] amounted to 270 nM; in test [2], 2200 nM.

Regarding `CC(C)CC(CC(=O)c1ccc(-c2ccccc2F)cc1)C(=O)O` (stereo not drawn) [Example 17, [1,1'-Biphenyl]-4-butanoic acid, 2'-fluoro-α-(2-methylpropyl)-γ-oxo-], the inhibition at 5 µM was 35% in test [1] and 0% in test [2].

Regarding `CC(C)CC(CC(=O)c1ccc(-c2ccc(C#N)cc2)cc1)C(=O)O` (stereo not drawn) [Example 46, [1,1'-Biphenyl]-4-butanoic acid, 4'-cyano-α-(2-methylpropyl)-γ-oxo-], the IC50 was 700 nM in test [1] and 4000 nM in test [2].

As to `O=C(CC(Cc1ccc(-c2ccccc2)cc1)C(=O)O)c1ccc(-c2ccc(Cl)cc2)cc1` (stereo not drawn) [Example 182, [1,1'-Biphenyl]-4-butanoic acid, α-([1,1'-biphenyl]-4-ylmethyl)-4'-chloro-γ-oxo-], the inhibition at 5 µM in test [1] came to 7%; in test [2], 17%.

`O=C(CC(CCCCCc1ccccc1)C(=O)O)c1ccc(-c2ccc(Cl)cc2)cc1` (stereo not drawn) [Example 180, [1,1'-Biphenyl]-4-butanoic acid, 4'-chloro-γ-oxo-α-(5-phenylpentyl)-]: the values for the 50% inhibitory concentration (IC50) in test [1] and in test [2] were 270 nM and 360 nM, respectively.

Take `O=C(CC(CCCc1ccccc1)C(=O)O)c1ccc(-c2ccc(OCCO)cc2)cc1` (stereo not drawn) [Example 54, [1,1'-Biphenyl]-4-butanoic acid, 4'-(2-hydroxyethoxy)-γ-oxo-α-(3-phenylpropyl)-]: the concentration for half-maximal inhibition (IC50) came out at 190 nM in test [1] and 700 nM in test [2].

In the case of `COCCOCC(CC(=O)c1ccc(-c2ccc(Cl)cc2)cc1)C(=O)O` (stereo not shown) [Example 191, [1,1'-Biphenyl]-4-butanoic acid, 4'-chloro-=-[(2-methoxyethoxy)methyl]-γ-oxo-], the half-inhibitory concentration (IC50) in test [1] was 330 nM. Also, the inhibition at 5 µM in test [2] amounted to 62%.

Regarding `O=C(CC(CCCc1ccccc1)C(=O)O)c1ccc(-c2ccc(OCCCc3ccccc3)cc2)cc1` (stereo not drawn) [Example 90, [1,1'-Biphenyl]-4-butanoic acid, γ-oxo-4'-(3-phenylpropoxy)-α-(3-phenylpropyl)-], the inhibition at 5 µM came to 36% in test [1] and 11% in test [2].

On to `O=C(c1ccc(-c2ccc(Cl)cc2)cc1)[C@H]1CCCC[C@H]1C(=O)O` (relative stereo) [Example 286, Cyclohexanecarboxylic acid, 2-[(4'-chloro[1,1'-biphenyl]-4-yl)carbonyl]-, trans-], for which the inhibition at 5 µM in test [1] worked out at 19%; in test [2], 0%.

Regarding `CNC(=O)c1ccccc1SCC(CC(=O)c1ccc(-c2ccc(Cl)cc2)cc1)C(=O)O` (stereo not drawn) [Example 250, [1,1'-Biphenyl]-4-butanoic acid, 4'-chloro-α-[[[2-[(methylamino)carbonyl]phenyl]thio]methyl]-γ-oxo-], the figures for the IC50 in test [1] and in test [2] were 125 nM and 800 nM, respectively.

Turning to `O=C(O)[C@@H]1CC=CC[C@H]1C(=O)c1ccc(-c2ccc(Cl)cc2)cc1` (relative stereo) [Example 328, 3-Cyclohexene-1-carboxylic acid, 6-[(4'-chloro[1,1'-biphenyl]-4-yl)carbonyl]-, trans-], the inhibition at 5 µM worked out at 49% in test [1] and 45% in test [2].

As for `N#Cc1ccc(-c2ccc(C(=O)CC(CCc3ccccc3)C(=O)O)cc2)cc1` (stereo not drawn) [Example 125, [1,1'-Biphenyl]-4-butanoic acid, 4'-cyano-γ-oxo-α-(2-phenylethyl)-], the values for the half-maximal inhibitory concentration (IC50) in test [1] and in test [2] were 105 nM and 1800 nM, respectively.

Consider `C=C(CC(=O)c1ccc(-c2ccccc2Cl)cc1)C(=O)O` [Example 24, [1,1'-Biphenyl]-4-butanoic acid, 2'-chloro-α-methylene-γ-oxo-, reference compound], for which the results for the inhibition at 5 µM in test [1] and in test [2] were 40% and 0%, respectively.
